Laboratory results reported in PubChem BioAssay (NCI).
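Five concentrations, 48 hours, 96-well plates. The concentration for full growth arrest is given as TGI.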

Tests used:
Test in all cases: NCI tumour cell line growth inhibition, 48 h
786-0 renal = test system: 786-0 renal
A498 renal = test system: A498 renal
A549 NSCLC = test system: A549 NSCLC
ACHN renal = test system: ACHN renal
BT-549 breast = test system: BT-549 breast
CAKI-1 renal = test system: CAKI-1 renal
CCRF-CEM leukemia = test system: CCRF-CEM leukemia
COLO 205 colon = test system: COLO 205 colon
DU-145 prostate = test system: DU-145 prostate
EKVX NSCLC = test system: EKVX NSCLC
HCT-116 colon = test system: HCT-116 colon
HCT-15 colon = test system: HCT-15 colon
HL-60(TB) leukemia = test system: HL-60(TB) leukemia
HOP-62 NSCLC = test system: HOP-62 NSCLC
HOP-92 NSCLC = test system: HOP-92 NSCLC
HS 578T breast = test system: HS 578T breast
HT29 colon = test system: HT29 colon
IGROV1 ovarian = test system: IGROV1 ovarian
K-562 leukemia = test system: K-562 leukemia
KM12 colon = test system: KM12 colon
LOX IMVI melanoma = test system: LOX IMVI melanoma
M14 melanoma = test system: M14 melanoma
MALME-3M melanoma = test system: MALME-3M melanoma
MCF7 breast = test system: MCF7 breast
MDA-MB-231 breast = test system: MDA-MB-231 breast
MDA-MB-435 = test system: MDA-MB-435
MDA-N = test system: MDA-N
MOLT-4 leukemia = test system: MOLT-4 leukemia
NCI-H226 lung = test system: NCI-H226 lung
NCI-H23 lung = test system: NCI-H23 lung
NCI-H460 lung = test system: NCI-H460 lung
NCI-H522 lung = test system: NCI-H522 lung
NCI/ADR-RES ovarian = test system: NCI/ADR-RES ovarian
OVCAR-3 ovarian = test system: OVCAR-3 ovarian
OVCAR-4 ovarian = test system: OVCAR-4 ovarian
OVCAR-5 ovarian = test system: OVCAR-5 ovarian
OVCAR-8 ovarian = test system: OVCAR-8 ovarian
PC-3 prostate = test system: PC-3 prostate
RPMI-8226 leukemia = test system: RPMI-8226 leukemia
RXF 393 renal = test system: RXF 393 renal
SF-268 CNS = test system: SF-268 CNS
SF-295 CNS = test system: SF-295 CNS
SF-539 CNS = test system: SF-539 CNS
SK-MEL-2 melanoma = test system: SK-MEL-2 melanoma
SK-MEL-28 melanoma = test system: SK-MEL-28 melanoma
SK-MEL-5 melanoma = test system: SK-MEL-5 melanoma
SK-OV-3 ovarian = test system: SK-OV-3 ovarian
SN12C renal = test system: SN12C renal
SNB-19 CNS = test system: SNB-19 CNS
SNB-75 CNS = test system: SNB-75 CNS
SR leukemia = test system: SR leukemia
SW-620 colon = test system: SW-620 colon
T-47D breast = test system: T-47D breast
TK-10 renal = test system: TK-10 renal
U251 CNS = test system: U251 CNS
UACC-257 melanoma = test system: UACC-257 melanoma
UACC-62 melanoma = test system: UACC-62 melanoma
UO-31 renal = test system: UO-31 renal

COc1ccc(C(=O)N/N=C2\C(=O)c3c(C)cc(C)cc3CC2(C)C)cc1
TGI (786-0 renal): 36.1 µM | TGI (A498 renal): 42.4 µM | TGI (A549 NSCLC): 44.2 µM | TGI (ACHN renal): 58.7 µM | TGI (BT-549 breast): 36.2 µM | TGI (CAKI-1 renal): > 100 µM | TGI (CCRF-CEM leukemia): 65.6 µM | TGI (COLO 205 colon): 49.3 µM | TGI (DU-145 prostate): 63.8 µM | TGI (EKVX NSCLC): 70.1 µM | TGI (HCT-116 colon): 32.1 µM | TGI (HCT-15 colon): 64.3 µM | TGI (HL-60(TB) leukemia): 51.5 µM | TGI (HOP-62 NSCLC): 37.4 µM | TGI (HOP-92 NSCLC): 31.3 µM | TGI (HS 578T breast): 41.9 µM | TGI (HT29 colon): 36.9 µM | TGI (IGROV1 ovarian): 41.5 µM | TGI (K-562 leukemia): 64.7 µM | TGI (KM12 colon): 39.9 µM | TGI (LOX IMVI melanoma): 34.2 µM | TGI (M14 melanoma): 38.8 µM | TGI (MALME-3M melanoma): 31.6 µM | TGI (MCF7 breast): 36.4 µM | TGI (MDA-MB-231 breast): 56.1 µM | TGI (MDA-MB-435): 35.1 µM | TGI (MDA-N): 39.3 µM | TGI (MOLT-4 leukemia): 37.3 µM | TGI (NCI-H226 lung): 45.7 µM | TGI (NCI-H23 lung): > 100 µM | TGI (NCI-H460 lung): 78.4 µM | TGI (NCI-H522 lung): 33.6 µM | TGI (NCI/ADR-RES ovarian): 80.6 µM | TGI (OVCAR-3 ovarian): 30.9 µM | TGI (OVCAR-4 ovarian): > 100 µM | TGI (OVCAR-5 ovarian): 55.5 µM | TGI (OVCAR-8 ovarian): 56.6 µM | TGI (PC-3 prostate): 47.7 µM | TGI (RPMI-8226 leukemia): 57.5 µM | TGI (RXF 393 renal): 32.6 µM | TGI (SF-268 CNS): 42.9 µM | TGI (SF-295 CNS): 40.1 µM | TGI (SF-539 CNS): 46 µM | TGI (SK-MEL-2 melanoma): 36.2 µM | TGI (SK-MEL-28 melanoma): 42.2 µM | TGI (SK-MEL-5 melanoma): 31.9 µM | TGI (SK-OV-3 ovarian): > 100 µM | TGI (SN12C renal): 37.2 µM | TGI (SNB-19 CNS): 84 µM | TGI (SNB-75 CNS): 56.5 µM | TGI (SR leukemia): 47.9 µM | TGI (SW-620 colon): 84.2 µM | TGI (T-47D breast): 40.4 µM | TGI (TK-10 renal): > 100 µM | TGI (U251 CNS): 31.9 µM | TGI (UACC-257 melanoma): 98.5 µM | TGI (UACC-62 melanoma): 31.6 µM

CC(=O)N1N=C(c2cc(C)ccc2O)CC1c1cccc(Cl)c1 (centres undefined)
TGI (786-0 renal): > 100 µM | TGI (A549 NSCLC): 47.4 µM | TGI (ACHN renal): 47.8 µM | TGI (BT-549 breast): > 100 µM | TGI (CAKI-1 renal): > 100 µM | TGI (CCRF-CEM leukemia): 57.8 µM | TGI (COLO 205 colon): 21.9 µM | TGI (DU-145 prostate): > 100 µM | TGI (EKVX NSCLC): 91.8 µM | TGI (HCT-116 colon): > 100 µM | TGI (HCT-15 colon): 5.51 µM | TGI (HL-60(TB) leukemia): 42.4 µM | TGI (HOP-62 NSCLC): > 100 µM | TGI (HOP-92 NSCLC): 37 µM | TGI (HS 578T breast): 43 µM | TGI (HT29 colon): 40.2 µM | TGI (IGROV1 ovarian): 8.45 µM | TGI (K-562 leukemia): > 100 µM | TGI (KM12 colon): > 100 µM | TGI (LOX IMVI melanoma): 39.6 µM | TGI (M14 melanoma): 84 µM | TGI (MALME-3M melanoma): 62.1 µM | TGI (MCF7 breast): 34.6 µM | TGI (MDA-MB-231 breast): 82.4 µM | TGI (MDA-MB-435): 4.05 µM | TGI (MDA-N): 5.44 µM | TGI (MOLT-4 leukemia): 28 µM | TGI (NCI-H226 lung): 58.8 µM | TGI (NCI-H23 lung): 68.1 µM | TGI (NCI-H460 lung): 61.9 µM | TGI (NCI-H522 lung): 14.3 µM | TGI (NCI/ADR-RES ovarian): 61.2 µM | TGI (OVCAR-3 ovarian): > 100 µM | TGI (OVCAR-4 ovarian): 54.8 µM | TGI (OVCAR-5 ovarian): > 100 µM | TGI (OVCAR-8 ovarian): > 100 µM | TGI (PC-3 prostate): 66.1 µM | TGI (RPMI-8226 leukemia): 26.5 µM | TGI (RXF 393 renal): 34.2 µM | TGI (SF-268 CNS): 50.5 µM | TGI (SF-295 CNS): 65 µM | TGI (SF-539 CNS): 69.8 µM | TGI (SK-MEL-2 melanoma): 28.8 µM | TGI (SK-MEL-5 melanoma): 27.8 µM | TGI (SK-OV-3 ovarian): 54.9 µM | TGI (SN12C renal): 77 µM | TGI (SNB-19 CNS): 28.5 µM | TGI (SR leukemia): 9.42 µM | TGI (SW-620 colon): 93.5 µM | TGI (T-47D breast): > 100 µM | TGI (TK-10 renal): 68.7 µM | TGI (U251 CNS): 39.7 µM | TGI (UACC-257 melanoma): 41.6 µM | TGI (UACC-62 melanoma): 35.2 µM | TGI (UO-31 renal): 50.3 µM

N#CC(C#N)N=Nc1ccc(-c2nc3ccccc3[nH]2)cc1
TGI (786-0 renal): 70.9 µM | TGI (A498 renal): > 100 µM | TGI (A549 NSCLC): > 100 µM | TGI (ACHN renal): 29 µM | TGI (BT-549 breast): 36.3 µM | TGI (CAKI-1 renal): 82.6 µM | TGI (CCRF-CEM leukemia): 36.8 µM | TGI (COLO 205 colon): 21.8 µM | TGI (DU-145 prostate): 39.6 µM | TGI (EKVX NSCLC): > 100 µM | TGI (HCT-116 colon): 43.2 µM | TGI (HCT-15 colon): 58.7 µM | TGI (HL-60(TB) leukemia): 1.38 µM | TGI (HOP-62 NSCLC): > 100 µM | TGI (HOP-92 NSCLC): 49.6 µM | TGI (HS 578T breast): > 100 µM | TGI (HT29 colon): > 100 µM | TGI (IGROV1 ovarian): 37.9 µM | TGI (K-562 leukemia): > 100 µM | TGI (KM12 colon): > 100 µM | TGI (LOX IMVI melanoma): 32.7 µM | TGI (M14 melanoma): 52.3 µM | TGI (MALME-3M melanoma): 28 µM | TGI (MCF7 breast): 37.6 µM | TGI (MDA-MB-231 breast): 35.5 µM | TGI (MDA-MB-435): 40 µM | TGI (MDA-N): 50.6 µM | TGI (MOLT-4 leukemia): > 100 µM | TGI (NCI-H226 lung): > 100 µM | TGI (NCI-H23 lung): 66 µM | TGI (NCI-H460 lung): > 100 µM | TGI (NCI-H522 lung): 22.9 µM | TGI (NCI/ADR-RES ovarian): 43.2 µM | TGI (OVCAR-3 ovarian): 37.8 µM | TGI (OVCAR-4 ovarian): 68.9 µM | TGI (OVCAR-5 ovarian): > 100 µM | TGI (OVCAR-8 ovarian): 47.7 µM | TGI (PC-3 prostate): 50.4 µM | TGI (RPMI-8226 leukemia): > 100 µM | TGI (RXF 393 renal): 34.8 µM | TGI (SF-268 CNS): 66.4 µM | TGI (SF-295 CNS): > 100 µM | TGI (SF-539 CNS): 35.5 µM | TGI (SK-MEL-2 melanoma): 64 µM | TGI (SK-MEL-28 melanoma): 52 µM | TGI (SK-MEL-5 melanoma): > 100 µM | TGI (SK-OV-3 ovarian): > 100 µM | TGI (SN12C renal): > 100 µM | TGI (SNB-19 CNS): > 100 µM | TGI (SNB-75 CNS): > 100 µM | TGI (SR leukemia): > 100 µM | TGI (SW-620 colon): 46.9 µM | TGI (T-47D breast): 55.7 µM | TGI (TK-10 renal): 73.4 µM | TGI (U251 CNS): > 100 µM | TGI (UACC-257 melanoma): 40.9 µM | TGI (UO-31 renal): 31.1 µM
